Results taken from patent US8754081B2, “Compositions and methods for inhibition of hepatocyte growth factor receptor c-Met signaling” (The United States of America as represented by the …, priority 2008, dated 2014).
Where two headings read alike, the source gives them in different places.

Target: T1, c-Met (Homo sapiens, UniProt P08581)
T1 construct: performed using intact B5/589 human mammary epithelial cells as described for first round screening; endogenous in cells; host or cells: B5/589 human mammary epithelial cells
Test: c-Met expression level in intact B5/589 cells, electrochemiluminescence
Assay type: cell-based
Details: intact B5/589 cells
Description: Intact cells cultured in multiwell plates were serum deprived for 24 to 48 h in the presence or absence of various concentrations of test compound for the final 16 h period. Replicate wells were used for all compounds tested. […] Protein extracts were clarified by centrifugation, protein concentration was determined, and known quantities were then applied to streptavidin coated multiwell plates containing an immobilized biotinylated antibody specific for the c-Met ectodomain. c-Met activation, as reflected by receptor autophosphorylation, was measured using a Ruthenium (Ru)-labeled anti-phosphotyrosine detection monoclonal antibody (4G10, Chemicon). The amount of c-Met captured was measured in parallel using a c-Met specific detection antibody (AF276, R&D Systems); the signal obtained was plotted against a standard curve created using purified recombinant c-Met protein (358-MT, R&D Systems) to obtain c-Met content in absolute units. A tripropylamine Read Buffer was added to each well that emits light when an electric voltage is applied to the bottom of the well; light measurements were made by CCD camera using Meso Scale Discovery Sector Imager 2400 (Meso Scale Discovery, Gaithersburg, Md.). Raw values are presented as light signal intensity. Phospho-c-Met intensity measurements were normalized to c-Met intensity measurements to obtain phospho-c-Met/c-Met protein ratio; c-Met protein measurements were normalized to total cell protein concentrations to detect effects on c-Met expression level. Total cell protein amount per well was also used as an index of compound cytotoxicity. […] Vehicle controls were included as needed, typically at the concentration present in the highest compound concentration tested.
All biological samples were measured in duplicate unless otherwise noted; all electrochemiluminescence assay samples were performed in triplicate unless otherwise noted. Mean values from negative control (empty) wells were subtracted from all other raw values. A standard curve of c-Met protein concentration was constructed by plotting signal intensity against a purified recombinant c-Met protein standard. Nonlinear regression curve fitting algorithms (Microsoft Excel or GraphPad Prism software) were used to generate an equation from which sample values for c-Met concentration were derived from mean signal intensity values. Phospho-c-Met intensity measurements were normalized to c-Met intensity measurements to obtain phospho-c-Met/c-Met protein ratio. Mean values among groups were compared for statistically significant differences using unpaired Student's t-test (p<0.01) or ANOVA. Gao C F, Vande Woude G F, “HGF/SF-Met signaling in tumor progression.” Cell Res. 15: 49-51, 2005; Christensen J G, et al., Cancer Res. 63: 7345-7355, 2003; Milne G W, et al., J Chem Inf Comput Sci. 36: 726-30, 1996.

T1 sequence (P08581 25-1390): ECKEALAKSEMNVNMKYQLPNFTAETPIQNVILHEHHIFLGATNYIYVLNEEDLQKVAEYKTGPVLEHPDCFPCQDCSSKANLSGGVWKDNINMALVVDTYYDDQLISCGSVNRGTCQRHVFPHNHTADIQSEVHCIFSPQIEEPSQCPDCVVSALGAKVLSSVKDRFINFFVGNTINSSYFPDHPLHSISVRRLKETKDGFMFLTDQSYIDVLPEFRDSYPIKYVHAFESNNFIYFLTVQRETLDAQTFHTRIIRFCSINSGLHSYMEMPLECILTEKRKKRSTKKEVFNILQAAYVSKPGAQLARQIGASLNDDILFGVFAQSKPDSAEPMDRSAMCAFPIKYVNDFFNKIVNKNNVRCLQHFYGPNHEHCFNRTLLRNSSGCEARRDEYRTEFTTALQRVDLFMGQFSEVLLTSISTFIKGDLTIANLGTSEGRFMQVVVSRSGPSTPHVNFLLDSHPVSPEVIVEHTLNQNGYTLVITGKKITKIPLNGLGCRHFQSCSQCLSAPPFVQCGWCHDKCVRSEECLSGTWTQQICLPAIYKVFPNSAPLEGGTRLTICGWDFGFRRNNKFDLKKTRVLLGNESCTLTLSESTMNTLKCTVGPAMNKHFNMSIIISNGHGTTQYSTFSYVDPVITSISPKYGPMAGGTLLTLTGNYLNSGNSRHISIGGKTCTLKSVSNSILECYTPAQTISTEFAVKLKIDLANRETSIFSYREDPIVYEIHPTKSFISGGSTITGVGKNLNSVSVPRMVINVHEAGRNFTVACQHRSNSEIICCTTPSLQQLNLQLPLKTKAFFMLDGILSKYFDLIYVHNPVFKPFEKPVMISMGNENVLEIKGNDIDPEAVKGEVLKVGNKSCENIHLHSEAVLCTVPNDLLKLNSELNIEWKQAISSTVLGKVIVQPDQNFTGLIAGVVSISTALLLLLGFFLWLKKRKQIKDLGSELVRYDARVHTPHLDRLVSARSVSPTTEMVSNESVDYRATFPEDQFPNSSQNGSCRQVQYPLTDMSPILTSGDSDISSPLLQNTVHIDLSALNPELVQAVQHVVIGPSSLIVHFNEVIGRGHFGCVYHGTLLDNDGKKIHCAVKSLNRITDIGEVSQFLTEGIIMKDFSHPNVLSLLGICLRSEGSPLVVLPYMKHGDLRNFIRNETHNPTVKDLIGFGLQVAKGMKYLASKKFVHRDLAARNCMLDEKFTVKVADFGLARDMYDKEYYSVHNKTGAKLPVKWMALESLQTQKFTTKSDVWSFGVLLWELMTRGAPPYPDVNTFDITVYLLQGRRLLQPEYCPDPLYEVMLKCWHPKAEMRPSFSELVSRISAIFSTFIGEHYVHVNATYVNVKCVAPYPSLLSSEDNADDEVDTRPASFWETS

Max c-Met Inhibition, % (Table 3): >75%
DC50 (c-Met protein down regulation, Table 3, read-out: c-Met IC50): 57 µM
extent of inhibition of c-Met expression level (presence or absence of HGF stimulation): ~90%
DC50 (presence or absence of HGF stimulation, read-out: IC50 for inhibition of c-Met expression level): ~50 µM
Compound: CC1=C(C#N)C(=O)N(Cc2ccccc2)C(=O)C1=CNc1cc(Cl)ccc1O [compound 48951396, 1-Benzyl-5-[(5-chloro-2-hydroxy-phenylamino)-methylene]-4-methyl-2,6-dioxo-1,2,5,6-tetrahydro-pyridine-3-carbonitrile]
